Results reported in patent US20230152329A1, “NOVEL SPLIT-LUCIFERASE ENZYMES AND APPLICATIONS THEREOF” (ARIZONA BOARD OF REGENTS ON BEHALF OF THE UNIVERSITY OF …, priority 2020, published 2023).
Changes are numbered by the printed parent chain. In names and notes the source's numbering stands. Like-named read-outs stand apart in the source and are kept apart here.

How the values were obtained:
[1] = target: T1, protein-protein interaction of Bcl-xL and BAK (Homo sapiens, UniProt Q07817); assay: In cellulo split-luciferase assay, inhibition of Bcl-xL/BAK interaction in HEK293T cells; type: cell-based; settings: 14 hours; for inhibition at 10 µM: HEK-293T, read-out: Percent Inhibition
T1 construct: appending the soluble domain of Bcl-xL to the C-terminal fragment of N-Fluc228 Y33A/H46A; expressed in transfected cells; host or cells: HEK293T, transient transfection (pcDNA 3.1 constructs)
Protocol: N-terminal halves of firefly luciferase (N-Fluc) constructs were generated by fusing FK506-binding protein (FKBP) or Bcl-xL 209 (CΔ24) to the C-terminal of N-Fluc with a 27-residue glycine-serine linker in pcDNA 3.1 via restriction cloning. […] For in vitro assays, mRNA was generated using RiboMaX large scale RNA production system (T7) for 4 h at 30° C. and subsequently purified using G50-microcolumns.
HEK293T cells were maintained in DMEM supplemented with 10% (v/v) FBS, 2.5 μg/mL Amphotericin B, 100 U/mL penicillin, and 100 μg/mL streptomycin, and in a 37° C. water-saturated incubator with 5% CO2. For in cellulo experiments, 3×10^6 cells were seeded in 60 mm dishes for 24 h and then transiently transfected with equal amounts of DNA of each luciferase fragment using PolyJet In Vitro DNA Transfection Reagent. Twelve hours following transfection, 2.5×10^5 cells were transferred to 24-well plates and incubated for an additional 24 h. […] All reported data was done at least in duplicate and repeated on different days. Data from luciferase assays were all normalized by lysate load and with background correction of equivalently treated mock transfected HEK293T cells.
Split-Fluc228 Y33A/H46A constructs were created by appending the soluble domain of Bcl-xL to the C-terminal fragment of N-Fluc228 Y33A/H46A with a 27-residue glycine-serine linker, giving N-Fluc228 Y33A/H46A-GS27-Bcl-xL. The BH3 domain of BAK (20 residues) was appended to the N-terminal fragment of C-Fluc229 through a 30-residue glycine-serine linker, providing BAK-GS30-C-Fluc229.

[2] = target: T2, FKBP-Rapamycin-FRB (Homo sapiens, UniProt P42345+P62942); assay: Cell-free (rabbit reticulocyte lysate) rapamycin-inducible split-luciferase assay; type: biochemical; settings: cell-free RRL; for rapamycin dependent luminescence signal (overall signal): 100 nM rapamycin; for unassisted/background complementation: without added rapamycin (DMSO)
T2 construct: N-terminal fragment of firefly luciferase (N-Fluc); split at 159, 228, 374, 397 or 405; C-terminal fragment of firefly luciferase (C-Fluc); made in house; host or cells: cell-free translation in rabbit reticulocyte lysate (RRL) from in vitro transcribed mRNA
Excerpt: N-terminal halves of firefly luciferase (N-Fluc) constructs were generated by fusing FK506-binding protein (FKBP) or Bcl-xL 209 (CΔ24) to the C-terminal of N-Fluc with a 27-residue glycine-serine linker in pcDNA 3.1 via restriction cloning. C-terminal halves of firefly luciferase (C-Fluc) were created by fusing either FKBP rapamycin-binding (FRB) domain or the BH3-domain of BAK to the N-terminal of C-Fluc with a 30-residue glycine-serine linker in pcDNA 3.1 via restriction cloning. For in vitro assays, mRNA was generated using RiboMaX large scale RNA production system (T7) for 4 h at 30° C. and subsequently purified using G50-microcolumns.
Following translation, 20 μL of lysate was added to 80 μL of L-Glo luciferase assay reagent, incubated at room temperature for 1 min and luminescence was subsequently read using a luminometer with 10 s integration time. All reported data are at least in duplicate and assays have been repeated on different days. Data from the reported luciferase assays were all normalized with background correction of equivalent treatment of RRL without added mRNA.
The N-terminal fragment of each split-luciferase was fused to FKBP at the C-terminal end and the C-terminal fragment of each split-luciferase was fused to FRB at the N-terminal end. Referring to FIG. 2A, the linkers between the enzyme fragments and the FKBP or FRB included 27 to 30 residue glycine-serine linkers. With the five split-Fluc constructs in hand, complementation was tested employing a cell-free protein expression approach using rabbit reticulocyte lysate (RRL), which allows for rapid protein expression and analysis. […] Following incubation, L-Glo reagent containing the substrate, luciferin, was added to each of the split-Fluc pairs and luminescence was subsequently measured.

[3] = 10 μM ABT-737, N-Fluc228 WT-Bcl-xL CΔ24 with BAK-CFluc229, HEK293T
[4] = 10 μM ABT-737, N-Fluc228 Y33A/H46A-Bcl-xL CΔ24 with BAK-CFluc229, HEK293T

T2 sequence (P62942 whole entry, the tested form may be a part): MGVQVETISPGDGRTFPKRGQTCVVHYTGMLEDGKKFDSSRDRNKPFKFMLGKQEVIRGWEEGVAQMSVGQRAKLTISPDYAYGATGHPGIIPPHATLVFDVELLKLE
T2 sequence (P42345 2012-2144 limits assumed): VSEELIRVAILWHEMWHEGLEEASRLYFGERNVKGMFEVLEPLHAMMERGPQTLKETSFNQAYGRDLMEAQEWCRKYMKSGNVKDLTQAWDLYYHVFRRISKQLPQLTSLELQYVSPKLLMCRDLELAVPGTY
T1 sequence (Q07817 1-209 limits assumed): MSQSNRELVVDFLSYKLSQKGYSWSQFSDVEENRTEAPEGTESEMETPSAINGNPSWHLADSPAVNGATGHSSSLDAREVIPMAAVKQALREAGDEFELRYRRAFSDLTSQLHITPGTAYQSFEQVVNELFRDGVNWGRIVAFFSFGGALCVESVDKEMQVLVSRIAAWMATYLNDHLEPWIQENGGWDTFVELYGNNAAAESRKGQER

CN(C)CC[C@H](CSc1ccccc1)Nc1ccc(S(=O)(=O)NC(=O)c2ccc(N3CCN(Cc4ccccc4-c4ccc(Cl)cc4)CC3)cc2)cc1[N+](=O)[O-] [ABT-737]
Average RLU [1, 3]: 438,145 RLU | Average RLU [1, 4]: 2,258 RLU | Percent Inhibition [1, 4]: 99.8% | inhibition at 10 µM [1, 3]: 96.1% | inhibition at 10 µM [1, 4]: > 99%

B1: Y33A: first-generation split-Fluc228 with N-FLuc228 Y33A single mutant (SEQ ID NO: 8) (protein)
chain: MEDAKNIKKGPAPFYPLEDGTAGEQLHKAMKRAALVPGTIAFTDAHIEVNITYAEYFEMSVRLAEAMKRYGLNTNHRIVVCSENSLQFFMPVLGALFIGVAVAPANDIYNERELLNSMNISQPTVVFVSKKGLQKILNVQKKLPIIQKIIIMDSKTDYQGFQSMYTFVTSHLPPGFNEYDFVPESFDRDKTIALIMNSSGSTGLPKGVALPHRTACVRFSHARDPIFG
rapamycin dependent luminescence signal (overall signal) [2]: maintaining strong rapamycin dependent signals | unassisted/background complementation [2]: significantly reduced unassisted complementation

B2: H46A: first-generation split-Fluc228 with N-FLuc228 H46A single mutant (SEQ ID NO: 7) (protein)
chain: B1 chain with A33Y, H46A
rapamycin dependent luminescence signal (overall signal) [2]: maintaining strong rapamycin dependent signals | unassisted/background complementation [2]: significantly reduced unassisted complementation
